Experiments:
[1] = test system: Botryotinia fuckeliana (Botrytis cinerea); experiment: Botryotinia fuckeliana (Botrytis cinerea) / liquid culture (gray mould); format: cell-based; details: 72 h, read-out: control of Botryotinia fuckeliana
Fusarium culmorum [2] = experiment: microbe, parasite or virus in culture; format: cell-based; details: read-out: control of Fusarium culmorum
Fusarium culmorum [3] = experiment: whole plant or invertebrate; format: in vivo; details: in Triticum aestivum, read-out: control of Fusarium culmorum
[4] = test system: Glomerella lagenarium (Colletotrichum lagenarium); experiment: Glomerella lagenarium (Colletotrichum lagenarium) / liquid culture (anthracnose); format: cell-based; details: Colletotrichum orbiculare; read-out: control of Glomerella lagenarium

Compound: CC(C)(Cc1ccccc1)NC(=O)c1cnc2c(F)cccc2c1 [Compound E-11, N-(1,1-dimethyl-2-phenyl-ethyl)-8-fluoro-quinoline-3-carboxamide]
- inhibition of growth at 200 ppm [1]: ≥ 80%
- inhibition of growth at 200 ppm (Fusarium culmorum [2]): ≥ 80%
- pest or weed control at 200 ppm (Fusarium culmorum [3]): ≥ 80%

Compound: CC(C)CC(C)(Cc1ccccc1)NC(=O)c1cc2ccccc2[n+]([O-])c1 (centres unmarked) [Compound E-41, N-(1-benzyl-1,3-dimethyl-butyl)-1-oxido-quinolin-1-ium-3-carboxamide]
- inhibition of growth at 200 ppm [1]: ≥ 80%
- inhibition of growth at 200 ppm (Fusarium culmorum [2]): ≥ 80%

Compound: Cc1ccc2ncc(C(=O)NC(C)(Cc3ccccc3)CC(C)C)cc2c1 (centres unmarked) [Compound E-71, N-(1-benzyl-1,3-dimethyl-butyl)-6-methyl-quinoline-3-carboxamide]
- inhibition of growth at 200 ppm [1]: ≥ 80%
- inhibition of growth at 200 ppm (Fusarium culmorum [2]): ≥ 80%
- pest or weed control at 200 ppm (Fusarium culmorum [3]): ≥ 80%

Compound: Cc1ccc2cc(C(=O)NC(C)(Cc3ccccc3)CC(C)C)cnc2c1 (centres unmarked) [Compound E-72, N-(1-benzyl-1,3-dimethyl-butyl)-7-methyl-quinoline-3-carboxamide]
- inhibition of growth at 200 ppm [1]: ≥ 80%
- inhibition of growth at 200 ppm (Fusarium culmorum [2]): ≥ 80%
- pest or weed control at 200 ppm (Fusarium culmorum [3]): ≥ 80%

Compound: CC(C)CC(C)(Cc1ccccc1)NC(=O)c1cnc2ccc(F)cc2c1 (centres unmarked) [Compound E-73, N-(1-benzyl-1,3-dimethyl-butyl)-6-fluoro-quinoline-3-carboxamide]
- inhibition of growth at 200 ppm [1]: ≥ 80%
- inhibition of growth at 200 ppm (Fusarium culmorum [2]): ≥ 80%

Compound: CC(C)CC(C)(Cc1ccccc1)NC(=O)c1cnc2cccc(F)c2c1 (centres unmarked) [Compound E-74, N-(1-benzyl-1,3-dimethyl-butyl)-5-fluoro-quinoline-3-carboxamide]
- inhibition of growth at 200 ppm [1]: ≥ 80%
- inhibition of growth at 200 ppm (Fusarium culmorum [2]): ≥ 80%
- pest or weed control at 200 ppm (Fusarium culmorum [3]): ≥ 80%

Compound: COc1cccc2ncc(C(=O)NC(C)(Cc3ccccc3)CC(C)C)cc12 (centres unmarked) [Compound E-75, N-(1-benzyl-1,3-dimethyl-butyl)-5-methoxy-quinoline-3-carboxamide]
- inhibition of growth at 200 ppm [1]: ≥ 80%
- inhibition of growth at 200 ppm (Fusarium culmorum [2]): ≥ 80%
- pest or weed control at 200 ppm (Fusarium culmorum [3]): ≥ 80%

Compound: CC(C)CC(C)(Cc1ccccc1)NC(=O)c1cnc2ccc(O)cc2c1 (centres unmarked) [Compound E-76, N-(1-benzyl-1,3-dimethyl-butyl)-6-hydroxy-quinoline-3-carboxamide]
- inhibition of growth at 200 ppm [1]: ≥ 80%
- inhibition of growth at 200 ppm (Fusarium culmorum [2]): ≥ 80%
- pest or weed control at 200 ppm (Fusarium culmorum [3]): ≥ 80%

Compound: Cc1ccc2ncc(C(=O)NC(C)(Cc3ccccc3)CC(F)(F)F)cc2c1 (centres unmarked) [Compound E-77, N-(1-benzyl-3,3,3-trifluoro-1-methyl-propyl)-6-methyl-quinoline-3-carboxamide]
- inhibition of growth at 200 ppm [1]: ≥ 80%
- inhibition of growth at 200 ppm (Fusarium culmorum [2]): ≥ 80%
- pest or weed control at 200 ppm (Fusarium culmorum [3]): ≥ 80%

Compound: CC(Cc1ccccc1)(CC(F)(F)F)NC(=O)c1cnc2ccc(Cl)cc2c1 (centres unmarked) [Compound E-78, N-(1-benzyl-3,3,3-trifluoro-1-methyl-propyl)-6-chloro-quinoline-3-carboxamide]
- inhibition of growth at 200 ppm (Fusarium culmorum [2]): ≥ 80%

Compound: Cc1ccc2cc(C(=O)NC(C)(Cc3ccccc3)CC(F)(F)F)cnc2c1 (centres unmarked) [Compound E-79, N-(1-benzyl-3,3,3-trifluoro-1-methyl-propyl)-7-methyl-quinoline-3-carboxamide]
- inhibition of growth at 200 ppm [1]: ≥ 80%
- inhibition of growth at 200 ppm (Fusarium culmorum [2]): ≥ 80%
- pest or weed control at 200 ppm (Fusarium culmorum [3]): ≥ 80%
- inhibition of growth at 200 ppm [4]: ≥ 80%

Compound: CC(Cc1ccccc1)(CC(F)(F)F)NC(=O)c1cnc2cccc(F)c2c1 (centres unmarked) [Compound E-80, N-(1-benzyl-3,3,3-trifluoro-1-methyl-propyl)-5-fluoro-quinoline-3-carboxamide]
- inhibition of growth at 200 ppm [1]: ≥ 80%
- inhibition of growth at 200 ppm (Fusarium culmorum [2]): ≥ 80%
- pest or weed control at 200 ppm (Fusarium culmorum [3]): ≥ 80%

Compound: COc1cccc2ncc(C(=O)NC(C)(Cc3ccccc3)CC(F)(F)F)cc12 (centres unmarked) [Compound E-81, N-(1-benzyl-3,3,3-trifluoro-1-methyl-propyl)-5-methoxy-quinoline-3-carboxamide]
- inhibition of growth at 200 ppm [1]: ≥ 80%
- inhibition of growth at 200 ppm (Fusarium culmorum [2]): ≥ 80%
- pest or weed control at 200 ppm (Fusarium culmorum [3]): ≥ 80%

Compound: CC(Cc1ccccc1)(CC(F)(F)F)NC(=O)c1cnc2ccc(O)cc2c1 (centres unmarked) [Compound E-82, N-(1-benzyl-3,3,3-trifluoro-1-methyl-propyl)-6-hydroxy-quinoline-3-carboxamide]
- inhibition of growth at 200 ppm [1]: ≥ 80%
- inhibition of growth at 200 ppm (Fusarium culmorum [2]): ≥ 80%
- pest or weed control at 200 ppm (Fusarium culmorum [3]): ≥ 80%

Compound: CC(Cc1ccccc1)(CC(F)(F)F)NC(=O)c1cnc2ccc(F)cc2c1 (centres unmarked) [Compound E-84, N-(1-benzyl-3,3,3-trifluoro-1-methyl-propyl)-6-fluoro-quinoline-3-carboxamide]
- inhibition of growth at 200 ppm [1]: ≥ 80%
- inhibition of growth at 200 ppm (Fusarium culmorum [2]): ≥ 80%
- pest or weed control at 200 ppm (Fusarium culmorum [3]): ≥ 80%

Compound: Cc1nc2c(F)cccc2cc1C(=O)NC(C)(Cc1ccccc1)CC(F)(F)F (centres unmarked) [Compound E-89, N-(1-benzyl-3,3,3-trifluoro-1-methyl-propyl)-8-fluoro-2-methyl-quinoline-3-carboxamide]
- inhibition of growth at 200 ppm [1]: ≥ 80%
- inhibition of growth at 200 ppm (Fusarium culmorum [2]): ≥ 80%
- pest or weed control at 200 ppm (Fusarium culmorum [3]): ≥ 80%
- inhibition of growth at 200 ppm [4]: ≥ 80%

Compound: CCCC(Cc1ccccc1)(NC(=O)c1cnc2c(F)cccc2c1)C(F)(F)F (centres unmarked) [Compound E-91, N-[1-benzyl-1-(trifluoromethyl)butyl]-8-fluoro-quinoline-3-carboxamide]
- inhibition of growth at 200 ppm [1]: ≥ 80%
- inhibition of growth at 200 ppm (Fusarium culmorum [2]): ≥ 80%
- pest or weed control at 200 ppm (Fusarium culmorum [3]): ≥ 80%
- inhibition of growth at 200 ppm [4]: ≥ 80%

Compound: CC(Cc1ccccc1)(CC(F)F)NC(=O)c1cnc2c(F)cccc2c1 (centres unmarked) [Compound E-95, N-(1-benzyl-3,3-difluoro-1-methyl-propyl)-8-fluoro-quinoline-3-carboxamide]
- inhibition of growth at 200 ppm [1]: ≥ 80%
- inhibition of growth at 200 ppm (Fusarium culmorum [2]): ≥ 80%
- pest or weed control at 200 ppm (Fusarium culmorum [3]): ≥ 80%
- inhibition of growth at 200 ppm [4]: ≥ 80%

Compound: Cc1c(C(=O)NC(C)(Cc2ccccc2)CC(C)C)cnc2c(C#N)cccc12 (centres unmarked) [Compound E-109, N-(1-benzyl-1,3-dimethyl-butyl)-8-cyano-4-methyl-quinoline-3-carboxamide]
- inhibition of growth at 200 ppm [1]: ≥ 80%
- inhibition of growth at 200 ppm (Fusarium culmorum [2]): ≥ 80%
- pest or weed control at 200 ppm (Fusarium culmorum [3]): ≥ 80%

Compound: CC(CCO)(Cc1ccccc1)NC(=O)c1cnc2c(F)cccc2c1 (centres unmarked) [Compound E-119, N-(1-benzyl-3-hydroxy-1-methyl-propyl)-8-fluoro-quinoline-3-carboxamide]
- inhibition of growth at 200 ppm [1]: ≥ 80%
- inhibition of growth at 200 ppm (Fusarium culmorum [2]): ≥ 80%

Compound: CC(C=O)(Cc1ccccc1)NC(=O)c1cnc2c(F)cccc2c1 (centres unmarked) [Compound E-120, N-(1-benzyl-1-methyl-2-oxo-ethyl)-8-fluoro-quinoline-3-carboxamide]
- inhibition of growth at 200 ppm (Fusarium culmorum [2]): ≥ 80%

Compound: C=C(C)CC(C)(Cc1ccccc1)NC(=O)c1cc2cccc(F)c2nc1C (centres unmarked) [Compound E-124, N-(1-benzyl-1,3-dimethyl-but-3-enyl)-8-fluoro-2-methyl-quinoline-3-carboxamide]
- inhibition of growth at 200 ppm [1]: ≥ 80%
- inhibition of growth at 200 ppm (Fusarium culmorum [2]): ≥ 80%

Compound: CC(C)C[C@@](C)(Cc1ccccc1)NC(=O)c1cnc2c(F)c(F)ccc2c1 [Compound F-22, N-[(1S)-1-benzyl-1,3-dimethyl-butyl]-7,8-difluoro-quinoline-3-carboxamide]
- inhibition of growth at 200 ppm [1]: ≥ 80%
- inhibition of growth at 200 ppm (Fusarium culmorum [2]): ≥ 80%
- inhibition of growth at 200 ppm [4]: ≥ 80%

Compound: Cc1nc2c(F)cccc2cc1C(=O)N[C@](C)(Cc1ccccc1)CC(F)(F)F [Compound F-34, N-[(1R)-1-benzyl-3,3,3-trifluoro-1-methyl-propyl]-8-fluoro-2-methyl-quinoline-3-carboxamide]
- inhibition of growth at 200 ppm [1]: ≥ 80%
- inhibition of growth at 200 ppm (Fusarium culmorum [2]): ≥ 80%
- inhibition of growth at 200 ppm [4]: ≥ 80%
